Measurements published in publication PMC5456363 (PLoS ONE, 2017).
Non-standard residues stand in square brackets, D forms with d. Residues, ends and D or L forms follow the SMILES beside them.

How the values were obtained:
[1] = Stability and metabolites across fresh blood, serum and plasma (all six matrices); conditions: for Overall stability / Sequential stability: fresh blood, serum, and plasma
Experimental: Aqueous peptide solutions (3 g/L) were filled in a sterile syringe (1 mL, Dispomed Witt oHG, Gelnhausen, Deutschland) through the front end, the stainless-steel needle was attached, and blood (200 to 300 μL) was collected via cardiac puncture to obtain a peptide concentration of approximately 31,5 μmol/L. The syringe was carefully disconnected from the needle and sealed while keeping the needle in the heart. A second empty syringe was attached to the needle and 0.5 to 0.8 mL blood were collected. In parallel, the sealed syringe was gently shaken for one minute to mix the peptide solution with blood and further incubated on a Stuart Rotator SB3 (Barloworld, Scientific LTD, Stone, Staffordshire, U.K.) placed in an incubator at 37°C. […] The plasma sample designated as “blood” (B) was precipitated with trichloroacetic acid (TCA), as described below. Blood collected in the second syringe was transferred to a polypropylene tube (Eppendorf AG, Hamburg, Germany) and a BD Microtainer® serum separator tube (SST; Becton, Dickinson and Company). Polypropylene tubes were centrifuged immediately (12,000 x g, 2 to 4 min) to obtain “direct serum” (DS) as supernatant, whereas the serum separator tubes were incubated (room temperature, 1 h), centrifuged (12,000 x g, 2 min), and collected as “activated serum” (AS). Pooled mouse serum was purchased from PAA Laboratories GmbH (Pasching, Austria) and pooled CD-1 mouse plasma containing K2EDTA or lithium heparin were obtained from Innovative Research (Novi, MI, USA).
Peptides were mixed with serum or plasma to a final concentration of 31.5 μmol/L and incubated (37°C, 750 rpm; Thermomixer, Eppendorf AG, Hamburg, Germany). Aliquots (20 or 40 μL) taken after 0 and 60 min (0, 10 and 30 min for Api88) were mixed with TCA to obtain a final concentration of 3% (w/v) and incubated on ice (10 min). After centrifugation (12,000 x g, 5 min), the supernatant was neutralized with sodium hydroxide (1 mol/L) and stored at −20°C. Samples were analyzed by RP-HPLC on a Jupiter C18-column (internal diameter: 2 mm, length: 150 mm, particle size: 5 μm, pore size: 30 nm) using a linear aqueous acetonitrile gradient containing TFA (0.1%, v/v) as ion pair reagent. Peptides were detected by recording the absorbance at 214 nm and quantified by their peak areas relative to the initial peak areas (0 min). All stability tests were performed at least in triplicates.
Metabolites were identified on an Agilent 1100 LC system (Agilent Technologies, Santa Clara, CA, USA) coupled on-line via a UV-detector (absorbance recorded at 214 nm) to the electrospray ionization source on an ion trap mass spectrometer (ESI-IT-MS, Esquire HCT, Bruker Daltonics GmbH, Bremen, Germany). Samples were separated on an Aqua C18-column (inner diameter: 2 mm, length: 150 mm, particle size: 3 μm, pore size: 12.5 nm, Phenomenex; column temperature: 60°C) at a flow rate of 0.2 mL/min using a linear gradient of aqueous acetonitrile in the presence of formic acid (FA; 0.1%, v/v) as ion pair reagent. […] The ESI-IT-MS was operated in positive ion mode. Ionization was carried out at 365°C (source temperature) using nitrogen as curtain gas (40 psi) and dry gas (9 L/min). Mass spectra were acquired for an m/z range from 400 to 1300 at a scan rate of 8100 m/z-units per second in standard enhanced mode.

[2] = Peptide stability in fresh blood taken by cardiac puncture into a syringe containing the peptide (blood, B); format: in vitro ADME, CD-1 mice; conditions: blood, 1 h
Experimental: (§1) All stability tests were performed at least in triplicates.

[3] = Peptide stability in commercial serum (CS); format: in vitro ADME, mouse; conditions: for prodrug expected to be present in full serum: extrapolated from 25% serum data assuming three-fold faster degradation in full serum
Experimental: as §1

[4] = design: method as in PMID 27067364; conditions: 25% aqueous commercial serum; cited from earlier work
human α-thrombin = biological target: T1, human α-thrombin (Homo sapiens, UniProt P00734); assay: α-Thrombin stability assay; format: in vitro ADME; conditions: cleavage C-terminal to Arg4; 0, 1, and 24 hours
T1 construct: with human α-Thrombin for 0, 1, and 24 hours
Experimental: Supplementary file pone.0178943.s003.tif: S3 Fig Stability of Api88, Api137, and LVPR-Onc112 against human α-thrombin. Chromatograms recorded after incubation of Api88 (a), Api137 (b), or LVPR-Onc112 (c) with human α-Thrombin for 0, 1, and 24 hours (UV absorbance). […] (TIF) Click here for additional data file.
S1 Text. Method α-Thrombin stability assay.

thrombin = system: thrombin; design: method as in PMID 18665823; conditions: recalcified citrated plasma; cited from earlier work
[5] = Peptide stability in activated serum (AS); format: in vitro ADME, CD-1 mice; conditions: 1 h
Experimental: as §1

[6] = Peptide stability in heparin plasma (HP); format: in vitro ADME, CD-1 mouse; conditions: 1 h
Experimental: as §1

[7] = Peptide stability in EDTA plasma (EP); format: in vitro ADME, CD-1 mouse; conditions: 1 h
Experimental: as §1

[8] = Peptide stability in direct serum (DS); format: in vitro ADME, CD-1 mice; conditions: 1 h
Experimental: as §1

[9] = intravenous application in mice; cited from earlier work
[10] = mouse serum; cited from earlier work

For `CC[C@H](C)[C@H](NC(=O)[C@@H](CCCNC(=N)N)NC(=O)[C@H](CCCNC(=N)N)NC(=O)[C@@H]1CCCN1C(=O)[C@@H]1CCCN1C(=O)[C@H](CCCNC(=N)N)NC(=O)[C@@H]1CCCN1C(=O)[C@H](CCCNC(=N)N)NC(=O)[C@@H]1CCCN1C(=O)[C@H](CC(C)C)NC(=O)[C@H](Cc1ccc(O)cc1)NC(=O)[C@@H]1CCCN1C(=O)[C@@H]1CCCN1C(=O)[C@H](CCCCN)NC(=O)[C@H](CC(=O)O)NC(=O)[C@@H](NC(=O)[C@H](CCCNC(=N)N)NC(=O)[C@@H]1CCCN1C(=O)[C@@H](NC(=O)[C@@H](N)CC(C)C)C(C)C)C(C)C)C(=O)N[C@@H](Cc1ccc(O)cc1)C(=O)N[C@@H](CC(N)=O)C(=O)N[C@H](CCCNC(=N)N)C(N)=O` [LVPR-Onc112, LVPRVDKPPYLPRPRPPRrIYNr-NH2] (H-LVPRVDKPPYLPRPRPPR[dR]IYN[dR]-NH2), the “sum of prodrug and released Onc112 relative to initial amount” value ([1]; all matrices except for blood, 1 h) was roughly 100%, the Overall stability [1] was “Low” and the Sequential stability [1] was “Blood > Serum > Plasma”. For the same compound, the remaining at 1 h ([2]; CD-1, mouse, fresh whole blood, 37°C, 31.5 μmol/L, read-out: intact peptide remaining relative to time zero) was 67 ± 4%, the “sum of prodrug and released Onc112 relative to initial amount” value [2] was 85% and the “prodrug expected to be present in full serum” value [3] was 14%. For the same compound, the “Onc112 released from linker peptide” value [4] was 57% and the “hydrolysis by thrombin compared with Api88” value (human α-thrombin) was “slower”.
In the case of `O=C(O)CN(CCN(CC(=O)O)CC(=O)O)CC(=O)O` [EDTA, ethylenediaminetetraacetic acid], the “thrombin reactivated in presence of the anticoagulant” value (thrombin) is given as 0.39 U/mL.
For `CC[C@H](C)[C@H](NC(=O)[C@@H](CCCNC(=N)N)NC(=O)[C@H](CCCNC(=N)N)NC(=O)[C@@H]1CCCN1C(=O)[C@@H]1CCCN1C(=O)[C@H](CCCNC(=N)N)NC(=O)[C@@H]1CCCN1C(=O)[C@H](CCCNC(=N)N)NC(=O)[C@@H]1CCCN1C(=O)[C@H](CC(C)C)NC(=O)[C@H](Cc1ccc(O)cc1)NC(=O)[C@@H]1CCCN1C(=O)[C@@H]1CCCN1C(=O)[C@H](CCCCN)NC(=O)[C@H](CC(=O)O)NC(=O)[C@@H](NC(=O)[C@H](CCCNC(=N)N)NC(=O)[C@H](Cc1ccc(O)cc1)NC(=O)[C@H](C)NC(=O)[C@H](C)N)C(C)C)C(=O)N[C@@H](Cc1ccc(O)cc1)C(=O)N[C@@H](CC(N)=O)C(=O)N[C@H](CCCNC(=N)N)C(N)=O` [AAYR-Onc112, AAYRVDKPPYLPRPRPPRrIYNr-NH2] (H-AAYRVDKPPYLPRPRPPR[dR]IYN[dR]-NH2), the Overall stability [1] was “Low”, the Sequential stability [1] was “Blood = Plasma = Serum” and the “Onc112 released relative to initial prodrug” value [2] was less than 3%. The “Onc112 released relative to initial prodrug” value [5] was less than 3%, the “Onc112 released relative to initial prodrug” value ([3]; commercial serum, 1 h) was 13 ± 2% and the “prodrug expected to be present in full serum” value [3] was 5%. The “Onc112 released relative to initial prodrug” value [6] was 35 ± 4%, the “Onc112 released from linker peptide” value [4] was 85% and the “Onc112 released relative to initial prodrug” value [7] was 40 ± 4%. For the same compound, the “Onc112 released relative to initial prodrug” value [8] was less than 3%.
For heparin, the “thrombin reactivated in presence of the anticoagulant” value (thrombin) is listed as 0.06 U/mL.
For `CC[C@H](C)[C@H](NC(=O)[C@@H](CCCNC(=N)N)NC(=O)[C@H](CCCNC(=N)N)NC(=O)[C@@H]1CCCN1C(=O)[C@@H]1CCCN1C(=O)[C@H](CCCNC(=N)N)NC(=O)[C@@H]1CCCN1C(=O)[C@H](CCCNC(=N)N)NC(=O)[C@@H]1CCCN1C(=O)[C@H](CC(C)C)NC(=O)[C@H](Cc1ccc(O)cc1)NC(=O)[C@@H]1CCCN1C(=O)[C@@H]1CCCN1C(=O)[C@H](CCCCN)NC(=O)[C@H](CC(=O)O)NC(=O)[C@@H](N)C(C)C)C(=O)N[C@@H](Cc1ccc(O)cc1)C(=O)N[C@@H](CC(N)=O)C(=O)N[C@H](CCCNC(=N)N)C(N)=O` [Onc112, VDKPPYLPRPRPPRrIYNr-NH2] (H-VDKPPYLPRPRPPR[dR]IYN[dR]-NH2), the “Matrix in which the metabolite was identified” value ([1]; LC-MS, peak area at least 1% of initially incubated peptide, B blood, DS direct serum, AS activated serum, CS commercial serum, EP EDTA plasma, HP heparin plasma, All = all six) was “All”, the Overall stability [1] was “High” and the Sequential stability [1] was “Blood = Plasma = Serum”. For the same compound, the “intact peptide remaining relative to time zero” value ([2]; 37°C, 31.5 μmol/L) was “at least 96%”, the “intact peptide remaining relative to time zero” value ([5]; 37°C, 31.5 μmol/L) was “at least 96%” and the metabolised at 1 h, 31.5 μmol/L ([3]; mouse, commercial pooled serum, commercial serum, 1 hour, read-out: peptide degraded) was less than 2%. The “plasma levels relative to Onc72” value [9] was “around fivefold”, the “intact peptide remaining relative to time zero” value ([6]; 37°C, 31.5 μmol/L) was “at least 96%” and the serum half-life time [10] was “more than 8 h”. The “intact peptide remaining relative to time zero” value ([7]; 37°C, 31.5 μmol/L) was “at least 96%” and the “intact peptide remaining relative to time zero” value ([8]; 37°C, 31.5 μmol/L) was “at least 96%”.
